From US4203989A, “Anti-diarrheal diaryl-(1-azabicyclo(2.2.2)octan-2-yl)-alkanols and related compounds” (G. D. Searle & Co., priority 1979, dated 1980)

system: gastrointestinal motility; test: Mouse Cecal Test (inhibition of gastrointestinal motility, charcoal in cecum); type: in vivo, mouse (male Charles River mice); conditions: IG (oral), 30 min before oral charcoal, cecum examined 3.5 h after charcoal, all-or-none, logistic method of Berkson, read-out: ED50 ± S.E. (median effective dose)
Description: The method used for this assay is a modification of the techniques previously described by Macht and Barb-Gose, J. Amer. Pharm. Ass., 20, 558 (1931), and Janssen and Jageneau, J. Pharm. Pharmacol., 9, 381 (1957). Details are as follows:
A group of six, male Charles River mice weighing 20-25 g. which have been previously fasted for 24 hours are pretreated with the test compounds administered orally as a solution in water or suspended in 0.5% methyl cellulose. A constant volume of 10 ml./kg. is employed. Thirty minutes following administration of the test compounds, the animals are given a single oral dose of charcoal which consists of 0.2 ml. per mouse of 10% charcoal suspended in 1.0% methyl cellulose. Three and a half hours after charcoal administration, the animals are sacrificed and the cecum examined for the absence or presence of charcoal on an all-or-none basis.
The median effective dose (ED50) is then calculated for each compound using the logistic method of Berkson (1953).

Row | SMILES | ED50 [mg/kg]
1 | OC1(C(CC2CC3CCN2CC3)(c2ccccc2)c2ccccc2)CCCC1 (centres unmarked) [1-[2-(1-azabicyclo[2.2.2]octan-2-yl)-1,1-diphenylethyl] cyclopentanol] | 7.61 ± 2.23
2 | Cl.OC1(C(CC2CC3CCN2CC3)(c2ccccc2)c2ccccc2)CCCC1 (centres unmarked) [1-[2-(1-azabicyclo[2.2.2]octan-2-yl)-1,1-diphenylethyl] cyclopentanol hydrochloride] | 1.78 ± 0.83
3 | CC(C)(O)C(CC1CC2CCN1CC2)(c1ccccc1)c1ccccc1 (stereo not drawn) [Alpha, alpha-dimethyl-beta, beta-diphenyl-1-azabicyclo [2.2.2]octane-2-propanol] | 1.6 ± 0.28
4 | OCCC(CC1CC2CCN1CC2)(c1ccccc1)c1ccccc1 (centres unmarked) [Gamma, gamma-diphenyl-1-azabicyclo[2.2.2]octane-2-butanol] | 6.39 ± 2.09
5 | Cl.OCCC(CC1CC2CCN1CC2)(c1ccccc1)c1ccccc1 (centres unmarked) [gamma, gamma-diphenyl-1-azabicyclo[2.2.2]octane-2-butanol hydrochloride] | 1.2 ± 0.25
